# Test results as given in US20230348376A1 (TEIJIN PHARMA LIMITED, priority 2020, published 2023).
# Experiments:
# human VDR = biological target: T1, human VDR (Homo sapiens, UniProt P11473); experiment: Evaluation of VDR transcription activity in human osteoblasts (HOS cells), luciferase reporter; conditions: Activity (EC50, VDR transcription activity), HOS cells transfected with human VDR, human RXRα and DR3 luciferase reporter; 21 hours
# T1 sequence (P11473 1-427): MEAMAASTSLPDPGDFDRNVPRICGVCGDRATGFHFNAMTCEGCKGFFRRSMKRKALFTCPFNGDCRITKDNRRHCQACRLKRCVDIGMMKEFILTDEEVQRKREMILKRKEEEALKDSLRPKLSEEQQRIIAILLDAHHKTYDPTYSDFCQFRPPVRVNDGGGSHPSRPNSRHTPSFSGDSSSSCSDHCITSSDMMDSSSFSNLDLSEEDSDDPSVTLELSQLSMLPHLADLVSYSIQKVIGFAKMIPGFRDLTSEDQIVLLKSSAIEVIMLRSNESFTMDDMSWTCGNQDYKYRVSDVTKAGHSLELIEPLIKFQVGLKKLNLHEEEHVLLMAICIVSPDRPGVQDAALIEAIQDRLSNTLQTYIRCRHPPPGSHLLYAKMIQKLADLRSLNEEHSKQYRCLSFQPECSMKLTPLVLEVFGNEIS
# T1 sequence (P19793 1-462 partner): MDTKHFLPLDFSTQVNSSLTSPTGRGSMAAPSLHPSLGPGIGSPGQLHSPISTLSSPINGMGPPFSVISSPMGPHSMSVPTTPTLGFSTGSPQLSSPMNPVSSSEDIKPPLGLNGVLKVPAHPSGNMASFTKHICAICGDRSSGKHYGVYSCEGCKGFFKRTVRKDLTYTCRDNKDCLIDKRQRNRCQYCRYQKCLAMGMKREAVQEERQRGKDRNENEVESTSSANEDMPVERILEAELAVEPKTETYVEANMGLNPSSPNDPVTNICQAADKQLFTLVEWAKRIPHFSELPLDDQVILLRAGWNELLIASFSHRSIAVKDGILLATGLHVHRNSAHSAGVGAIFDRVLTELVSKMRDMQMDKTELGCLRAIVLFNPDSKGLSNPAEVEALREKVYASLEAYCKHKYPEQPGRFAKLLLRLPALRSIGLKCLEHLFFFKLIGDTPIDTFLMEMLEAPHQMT
# [1] = Evaluation of brain penetration in mice (blood and brain concentration at brain Cmax); format: in vivo, mouse; conditions: 1 mg/kg single oral dose, C57BL/6J mice; for Concentration in blood (mean ± SD) at brain Cmax / Concentration in brain (mean ± SD) at brain Cmax: n=3; for Kp: male, C57BL/6J, mouse, brain/plasma, po, 1 mg/kg, read-out: Concentration in brain/in blood ratio at brain Cmax
# Experimental: The administration solution was administered orally to C57BL/6J mice (8 weeks old, male, n=3) at a single dose (1 mg/kg). Mice were euthanized at 6 points of 0.25, 0.5, 1, 2, 4, and 8 hours after administration, and plasma and brain sampling were performed. After preparing a homogenate from the collected brain using Tissue Lyser II (QIAGEN #85300), acetonitrile was added to the homogenate and the homogenate was centrifuged (12000 rpm, 5 minutes) to extract the administered test compound contained in the brain. Similarly, the plasma was subjected to addition of acetonitrile and centrifugal separation to extract the administered test compound contained in the plasma. Each extracted sample was subjected to measurement of the concentration of administered test compound using LC/MS/MS (SHIMADZU UFLC/MS/MS (8050)).
# Test 2 [0.2 mg/kg Administration Study] […] The administration solution was administered orally to C57BL/6J mice (8 weeks old, male, n=3) at a single dose (0.2 mg/kg). Mice were euthanized at 6 points of 0.25, 0.5, 1, 2, 4, and 8 hours after administration, and plasma and brain sampling were performed. After preparing a homogenate from the collected brain using Tissue Lyser II (QIAGEN #85300), acetonitrile was added to the homogenate and the homogenate was centrifuged (12000 rpm, 5 minutes) to extract the administered compound contained in the brain. Similarly, the plasma was subjected to addition of acetonitrile and centrifugal separation to extract the administered test compound contained in the plasma. Each extracted sample was subjected to measurement of the concentration of administered test compound using LC/MS/MS (SHIMADZU UFLC/MS/MS (8050)).
# [2] = system: rat oligodendrocyte progenitor cells; experiment: Promotive activity of rat oligodendrocyte progenitor cell differentiation-2 (immunostaining of MBP); format: cell-based; conditions: vitamin D derivative 2 μM, T3 30 nM, 4 days
# Experimental: The promotive activity of oligodendrocyte progenitor cell (OPC) differentiation of the vitamin D derivatives was evaluated by immunostaining of MBP.
# Subsequently, oligodendrocyte progenitor cell separation medium was added to the flask, and the mixture was similarly shaken for about 22 hours (37° C., 200 rpm), and the supernatant was collected to prepare oligodendrocyte progenitor cells.
Compound,EC50 (human VDR) [µM],Concentration in blood (mean ± SD) at brain Cmax [1] [µM],Concentration in brain (mean ± SD) at brain Cmax [1] [pmol/g],Kp [1],also measured
"C=C1/C(=C\C=C2/CCC[C@]3(C)[C@@H]([C@@H](C)CN4CC[C@H](F)C4)CC[C@@H]23)C[C@@H](O)C[C@@H]1O [Compound B018, (1R,3S,Z)-5-(2-((1R,3aS,7aR,E)-1-((R)-1-((S)-3-fluoropyrrolidin-1-yl)propan-2-yl)-7a-methyloctahydro-4H-inden-4-ylidene)ethylidene)-4-methylenecyclohexane-1,3-diol]",0.01 to 0.1,0.841 ± 0.197,533 ± 197,0.63,–
"C[C@H](CN1CCC(O)(C(F)(F)F)CC1)[C@H]1CC[C@H]2/C(=C/C=C3C[C@@H](O)C[C@H](O)C3)CCC[C@]12C [Compound C002, (1R,3R)-5-(2-((1R,3aS,7aR,E)-1-((S)-1-(4-hydroxy-4-(trifluoromethyl)piperidin-1-yl)propan-2-yl)-7a-methyloctahydro-4H-inden-4-ylidene)ethylidene)cyclohexane-1,3-diol]",0.01 to 0.1,0.402 ± 0.038,156 ± 14,0.39,–
C=C1/C(=C\C=C2/CCC[C@]3(C)[C@@H]([C@@H](C)CN4CCC(O)(C(F)(F)F)CC4)CC[C@@H]23)C[C@@H](O)[C@H](C)[C@@H]1O [Compound C006],< 0.001,0.51 ± 0.055,239 ± 23,0.47,–
C=C1[C@H](O)CC(=C/C=C2\CCC[C@]3(C)[C@@H]([C@@H](C)CN4CCC(C(F)F)CC4)CC[C@@H]23)C[C@H]1O [Compound C019],0.001 to 0.01,0.335 ± 0.085,614 ± 153,1.83,–
"C[C@H](CN1CCC[C@](C)(O)C1)[C@H]1CC[C@H]2/C(=C/C=C3C[C@@H](O)C[C@H](O)C3)CCC[C@]12C [Compound C039, (1R,3R)-5-(2-((1R,3aS,7aR,E)-1-((S)-1-((S)-3-hydroxy-3-methylpiperidin-1-yl)propan-2-yl)-7a-methyloctahydro-4H-inden-4-ylidene)ethylidene)cyclohexane-1,3-diol]",0.001 to 0.01,0.132 ± 0.015,101 ± 8,0.77,–
"C=C1[C@H](O)CC(=C/C=C2\CCC[C@]3(C)[C@@H]([C@H](C)CN4CCC(CC(F)F)CC4)CC[C@@H]23)C[C@H]1O [Compound C059, (1R,3R)-5-(2-((1R,3aS,7aR,E)-1-((S)-1-(4-(2,2-difluoroethyl)piperidin-1-yl)propan-2-yl)-7a-methyloctahydro-4H-inden-4-ylidene)ethylidene)-2-methylenecyclohexane-1,3-diol]",0.01 to 0.1,0.167 ± 0.029,241 ± 21,1.44,–
"C=C1/C(=C\C=C2/CCC[C@]3(C)[C@@H]([C@H](C)CN4CCCC[C@@H]4C)CC[C@@H]23)C[C@@H](O)C[C@@H]1O [Compound F001, (1R,3S,Z)-5-(2-((1R,3aS,7aR,E)-7a-methyl-1-((S)-1-((S)-2-methylpiperidin-1-yl)propan-2-yl)octahydro-4H-inden-4-ylidene)ethylidene)-4-methylenecyclohexane-1,3-diol]",–,–,–,–,Mean (number of MBP-positive cells/number of Hoechst33342-positive cells) ([2]; Test 7): 0.29
"C=C1/C(=C\C=C2/CCC[C@]3(C)[C@@H]([C@H](C)CN4CCCC[C@H]4C)CC[C@@H]23)C[C@@H](O)C[C@@H]1O [Compound F002, (1R,3S,Z)-5-(2-((1R,3aS,7aR,E)-7a-methyl-1-((S)-1-((R)-2-methylpiperidin-1-yl)propan-2-yl)octahydro-4H-inden-4-ylidene)ethylidene)-4-methylenecyclohexane-1,3-diol]",–,–,–,–,Mean (number of MBP-positive cells/number of Hoechst33342-positive cells) ([2]; Test 7): 0.31
"C=C1/C(=C\C=C2/CCC[C@]3(C)[C@@H]([C@H](C)CN4CCCCC4(C)C)CC[C@@H]23)C[C@@H](O)C[C@@H]1O [Compound F003, (1R,3S,Z)-5-(2-((1R,3aS,7aR,E)-1-((S)-1-(2,2-dimethylpiperidin-1-yl)propan-2-yl)-7a-methyloctahydro-4H-inden-4-ylidene)ethylidene)-4-methylenecyclohexane-1,3-diol]",–,–,–,–,Mean (number of MBP-positive cells/number of Hoechst33342-positive cells) ([2]; Test 7): 0.32
"C=C1/C(=C\C=C2/CCC[C@]3(C)[C@@H]([C@H](C)CN4CCOC[C@@H]4C)CC[C@@H]23)C[C@@H](O)C[C@@H]1O [Compound F004, (1R,3S,Z)-5-(2-((1R,3aS,7aR,E)-7a-methyl-1-((S)-1-((S)-3-methylmorpholino)propan-2-yl)octahydro-4H-inden-4-ylidene)ethylidene)-4-methylenecyclohexane-1,3-diol]",–,–,–,–,Mean (number of MBP-positive cells/number of Hoechst33342-positive cells) ([2]; Test 3): 0.37
"C=C1/C(=C\C=C2/CCC[C@]3(C)[C@@H]([C@H](C)CN4CCOC[C@H]4C)CC[C@@H]23)C[C@@H](O)C[C@@H]1O [Compound F005, (1R,3S,Z)-5-(2-((1R,3aS,7aR,E)-7a-methyl-1-((S)-1-((R)-3-methylmorpholino)propan-2-yl)octahydro-4H-inden-4-ylidene)ethylidene)-4-methylenecyclohexane-1,3-diol]",–,–,–,–,Mean (number of MBP-positive cells/number of Hoechst33342-positive cells) ([2]; Test 3): 0.40
"C=C1/C(=C\C=C2/CCC[C@]3(C)[C@@H]([C@H](C)CN4CCOCC4(C)C)CC[C@@H]23)C[C@@H](O)C[C@@H]1O [Compound F006, (1R,3S,Z)-5-(2-((1R,3aS,7aR,E)-1-((S)-1-(3,3-dimethylmorpholino)propan-2-yl)-7a-methyloctahydro-4H-inden-4-ylidene)ethylidene)-4-methylenecyclohexane-1,3-diol]",–,–,–,–,Mean (number of MBP-positive cells/number of Hoechst33342-positive cells) ([2]; Test 4): 0.44
"C=C1/C(=C\C=C2/CCC[C@]3(C)[C@@H]([C@H](C)CN4CCOC[C@@H]4C4CC4)CC[C@@H]23)C[C@@H](O)C[C@@H]1O [Compound F008, (1R,3 S,Z)-5-(2-((1R,3aS,7aR,E)-1-((S)-1-((S)-3-cyclopropylmorpholino)propan-2-yl)-7a-methyloctahydro-4H-inden-4-ylidene)ethylidene)-4-methylenecyclohexane-1,3-diol]",–,–,–,–,Mean (number of MBP-positive cells/number of Hoechst33342-positive cells) ([2]; Test 5): 0.45
"C=C1/C(=C\C=C2/CCC[C@]3(C)[C@@H]([C@H](C)CN4CCN(C)C[C@@H]4C)CC[C@@H]23)C[C@@H](O)C[C@@H]1O [Compound F011, (1R,3S,Z)-5-(2-((1R,3aS,7aR,E)-1-((S)-1-((S)-2,4-dimethylpiperazin-1-yl)propan-2-yl)-7a-methyloctahydro-4H-inden-4-ylidene)ethylidene)-4-methylenecyclohexane-1,3-diol]",–,–,–,–,Mean (number of MBP-positive cells/number of Hoechst33342-positive cells) ([2]; Test 5): 0.26
